Measurements taken from patent US8871796B2, “Diaryl ether derivatives as notch sparing gamma secretase inhibitors” (Merck Sharp & Dohme Corp., priority 2009, dated 2014).
Like-named read-outs stand apart in the source and are kept apart here.

Assay: APP processing: AlphaLisa assay of secreted Aβ40 and Aβ42 from SP4CT cells
Type: cell-based
Settings: Homo sapiens, SH-SY5Y cells expressing amyloid β protein (SP4CT cells)
Experimental: APP Processing (Assay Quantitates Secreted Aβ Analytes from Cell Lines):
The effect of compounds on the abundance of Aβ40 and Aβ42 peptides generated from SH-SY5Y cells expressing amyloid β protein (SP4CT cells) are determined by an AlphaLisa™ assay. Analogous to an ELISA assay, generation of […] AlphaLisa™ assay requires “donor” and “acceptor” beads to be brought in close proximity by specific antibody recognition of either Aβ40 or Aβ42 peptides. The assay is accomplished by removing media from compound-treated SP4CT cells to two different microplates, followed by the addition of donor beads conjugated with streptavidin binding a biotinylated anti-amyloid β monocolonal antibody (clone 4G8). Acceptor beads directly conjugated with anti-Aβ40 monoclonal antibody (G210) are added to one microplate and anti-Aβ42 monoclonal antibody (12F4) acceptor beads were added to the other. Abundance of Aβ40 and Aβ42 is directly proportional to the luminescent signal generated following excitation of donor beads by laser light.

[1] = read-out: IC50, inhibition of production of Aβ40 peptide
[2] = read-out: IC50, inhibition of production of Aβ42 peptide

| IC50 [1] [nM] | IC50 [2] [nM] | Structure (SMILES) |
| --- | --- | --- |
| < 200 | < 200 | CCn1nc(Oc2ccc(C(F)(F)F)cc2)cc1-c1cccc(C2(NS(=O)(=O)CC(F)(F)F)CC2)c1 [Example 31, N-[1-(3-{1-ethyl-3-[4-(trifluoromethyl)phenoxy]-1H-pyrazol-5-yl}phenyl)cyclopropyl]-2,2,2-trifluoroethanesulfonamide] |
| < 200 | < 200 | CCn1nc(Oc2ccc(C(F)(F)F)cn2)cc1-c1cccc(C2(NS(=O)(=O)CC(F)(F)F)CC2)c1 [Example 32, N-{1-[3-(1-ethyl-3-{[5-(trifluoromethyl)pyridin-2-yl]oxy}-1H-pyrazol-5-yl)phenyl]cyclopropyl}-2,2,2-trifluoroethanesulfonamide] |
| < 200 | < 200 | CCCNS(=O)(=O)NC1(c2cccc(-c3cc(Oc4ccc(C(F)(F)F)cc4)nn3CC)c2)CC1 [Example 33, N-[1-(3-{1-ethyl-3-[4-(trifluoromethyl)phenoxy]-1H-pyrazol-5-yl}phenyl)cyclopropyl]-N′-propylsulfamide] |
| < 200 | < 200 | CCn1nc(Oc2ccc(C(F)(F)F)cc2)cc1-c1cccc(C2(NS(=O)(=O)NC)CC2)c1 [Example 34, N-[1-(3-{1-ethyl-3-[4-(trifluoromethyl)phenoxy]-1H-pyrazol-5-yl}phenyl)cyclopropyl]-N′-methylsulfamide] |
| < 200 | < 200 | CCn1nc(-c2cccc(C3(NS(=O)(=O)NC4CCCC4)CC3)c2)cc1Oc1ccc(C(F)(F)F)cc1 [Example 35, N-cyclopentyl-N′-[1-(3-{1-ethyl-5-[4-(trifluoromethyl)phenoxy]-1H-pyrazol-3-yl}phenyl)cyclopropyl] sulfamide] |
| < 200 | < 200 | CCn1nc(-c2cccc(C3(NS(=O)(=O)NCC(F)(F)F)CC3)c2)cc1Oc1ccc(C(F)(F)F)cc1 [Example 36, N-[1-(3-{1-ethyl-5-[4-(trifluoromethyl)phenoxy]-1H-pyrazol-3-yl}phenyl)cyclopropyl]-N′-(2,2,2-trifluoroethyl)sulfamide] |
| < 200 | < 200 | CCn1nc(-c2cccc(C3(NS(=O)(=O)CC4CCC4)CC3)c2)cc1Oc1ccc(C(F)(F)F)cc1 [Example 37, 1-cyclobutyl-N-[1-(3-{1-ethyl-5-[4-(trifluoromethyl)phenoxy]-1H-pyrazol-3-yl}phenyl)cyclopropyl] methanesulfonamide] |
| < 200 | < 200 | CCn1nc(-c2cccc(C3(NS(=O)(=O)CC)CC3)c2)cc1Oc1ccc(C(F)(F)F)cc1 [Example 38, N-[1-(3-{1-ethyl-5-[4-(trifluoromethyl)phenoxy]-1H-pyrazol-3-yl}phenyl)cyclopropyl] ethanesulfonamide] |
| < 200 | < 200 | CCn1nc(-c2cccc(C3(NS(=O)(=O)CC(F)(F)F)CC3)c2)cc1Oc1ncc(C(F)(F)F)cc1Cl [Example 39, N-{1-[3-(5-{[3-chloro-5-(trifluoromethyl)pyridin-2-yl]oxy}-1-ethyl-1H-pyrazol-3-yl)phenyl]cyclopropyl}-2,2,2-trifluoroethanesulfonamide] |
| < 200 | < 200 | CCn1nc(-c2cccc(C3(NS(=O)(=O)CC(F)(F)F)CC3)c2)cc1Oc1ccc(C(F)(F)F)nc1 [Example 40, N-{1-[3-(1-ethyl-5-{[6-(trifluoromethyl)pyridin-3-yl]oxy}-1H-pyrazol-3-yl)phenyl]cyclopropyl}-2,2,2-trifluoroethanesulfonamide] |
| < 200 | < 200 | CCn1nc(-c2cccc(C3(NS(=O)(=O)NCC(F)(F)F)CC3)c2)cc1Oc1ccc(C(F)(F)F)cn1 [Example 41, N-{1-[3-(1-ethyl-5-{[5-(trifluoromethyl)pyridin-2-yl]oxy}-1H-pyrazol-3-yl)phenyl]cyclopropyl}-N′-(2,2,2-trifluoroethyl)sulfamide] |
| < 200 | < 200 | CCn1nc(-c2cccc(C3(NS(=O)(=O)CC4CCC4)CC3)c2)cc1Oc1ccc(C(F)(F)F)cn1 [Example 42, 1-cyclobutyl-N-{1-[3-(1-ethyl-5-{[5-(trifluoromethyl)pyridin-2-yl]oxy}-1H-pyrazol-3-yl)phenyl]cyclopropyl} methanesulfonamide] |
| < 200 | < 200 | CCn1nc(-c2cccc(C3(NS(=O)(=O)NC4CCC4)CC3)c2)cc1Oc1ccc(C(F)(F)F)cn1 [Example 43, N-cyclobutyl-N′-{1-[3-(1-ethyl-5-{[5-(trifluoromethyl)pyridin-2-yl]oxy}-1H-pyrazol-3-yl)phenyl]cyclopropyl} sulfamide] |
| < 200 | < 200 | CCn1nc(-c2cccc(C3(NS(=O)(=O)CC(F)(F)F)CC3)c2)cc1Oc1ccc(C(F)(F)F)cn1 [Example 44, N-{1-[3-(1-ethyl-5-{[5-(trifluoromethyl)pyridin-2-yl]oxy}-1H-pyrazol-3-yl)phenyl]cyclopropyl}-2,2,2-trifluoroethanesulfonamide] |
| < 200 | < 200 | CCn1nc(-c2cccc(C3(NS(=O)(=O)NC)CC3)c2)cc1Oc1ccc(C(F)(F)F)cn1 [Example 45, N-{1-[3-(1-ethyl-5-{[5-(trifluoromethyl)pyridin-2-yl]oxy}-1H-pyrazol-3-yl)phenyl]cyclopropyl}-N′-methylsulfamide] |
| < 200 | < 200 | CCCNS(=O)(=O)NC1(c2cccc(-c3cc(Oc4ccc(C(F)(F)F)cc4)n(CC)n3)c2)CC1 [Example 46, N-[1-(3-{1-ethyl-5-[4-(trifluoromethyl)phenoxy]-1H-pyrazol-3-yl}phenyl)cyclopropyl]-N′-propylsulfamide] |
| < 200 | < 200 | CCn1nc(-c2cccc(C3(NS(=O)(=O)NCC(C)C)CC3)c2)cc1Oc1ccc(C(F)(F)F)cc1 [Example 47, N-[1-(3-{1-ethyl-5-[4-(trifluoromethyl)phenoxy]-1H-pyrazol-3-yl}phenyl)cyclopropyl]-N′-isobutylsulfamide] |
| < 200 | < 200 | CCn1nc(-c2cccc(C3(NS(=O)(=O)NC)CC3)c2)cc1Oc1ccc(C(F)(F)F)cc1 [Example 48, N-[1-(3-{1-ethyl-5-[4-(trifluoromethyl)phenoxy]-1H-pyrazol-3-yl}phenyl)cyclopropyl]-N′-methylsulfamide] |
| < 200 | < 200 | CCn1nc(-c2cccc(C3(NS(=O)(=O)CC(F)(F)F)CC3)c2)cc1Oc1ncc(F)cn1 [Example 49, N-[1-(3-{1-ethyl-5-[(5-fluoropyrimidin-2-yl)oxy]-1H-pyrazol-3-yl}phenyl)cyclopropyl]-2,2,2-trifluoroethanesulfonamide] |
| < 200 | < 200 | CCn1nc(-c2cccc(C3(NS(=O)(=O)CC(F)(F)F)CC3)c2)cc1Oc1ccncc1 [Example 50, N-(1-{3-[1-ethyl-5-(pyridin-4-yloxy)-1H-pyrazol-3-yl]phenyl}cyclopropyl)-2,2,2-trifluoroethanesulfonamide] |
| < 200 | < 200 | CCn1nc(-c2cccc(C3(NS(=O)(=O)CC(F)(F)F)CC3)n2)cc1Oc1ccc(C(F)(F)F)cc1 [Example 51, N-[1-(6-{1-ethyl-5-[4-(trifluoromethyl)phenoxy]-1H-pyrazol-3-yl}pyridin-2-yl)cyclopropyl]-2,2,2-trifluoroethanesulfonamide] |
| < 200 | < 200 | CCn1nc(-c2cncc(C3(NS(=O)(=O)CC(F)(F)F)CC3)c2)cc1Oc1ccc(C(F)(F)F)cc1 [Example 52, N-[1-(5-{1-ethyl-5-[4-(trifluoromethyl)phenoxy]-1H-pyrazol-3-yl}pyridin-3-yl)cyclopropyl]-2,2,2-trifluoroethanesulfonamide] |
| < 200 | < 200 | CCn1nc(Oc2ccc(F)cc2)cc1-c1cccc(C(C)(C)NS(=O)(=O)NC2CCC2)c1 [Example 54, N-cyclobutyl-N′-(1-{3-[1-ethyl-3-(4-fluorophenoxy)-1H-pyrazol-5-yl]phenyl}-1-methylethyl)sulfamide] |
| < 200 | < 200 | CCn1nc(Oc2ccc(F)cc2)cc1-c1cccc(C(C)(C)NS(=O)(=O)NCC(F)(F)F)c1 [Example 55, N-(1-{3-[1-ethyl-3-(4-fluorophenoxy)-1H-pyrazol-5-yl]phenyl}-1-methylethyl)-N'-(2,2,2-trifluoroethyl)sulfamide] |
| < 200 | < 200 | CCn1nc(-c2cccc(C(C)(C)NS(=O)(=O)CC(F)(F)F)c2)cc1Oc1ccc(F)cc1 [Example 56, N-(1-{3-[1-ethyl-5-(4-fluorophenoxy)-1H-pyrazol-3-yl]phenyl}-1-methylethyl)-2,2,2-trifluoroethanesulfonamide] |
| < 200 | < 200 | CCn1nc(-c2cccc(C(C)(C)NS(=O)(=O)CC(F)(F)F)c2)cc1Oc1ccccc1 [Example 57, N-{1-[3-(1-ethyl-5-phenoxy-1H-pyrazol-3-yl)phenyl]-1-methylethyl}-2,2,2-trifluoroethanesulfonamide] |
| < 200 | < 200 | CCn1nc(-c2cccc(C(C)(C)NS(=O)(=O)CC(F)(F)F)c2)cc1Oc1ccc(C(C)C)cc1 [Example 58, N-(1-{3-[1-ethyl-5-(4-isopropylphenoxy)-1H-pyrazol-3-yl]phenyl}-1-methylethyl)-2,2,2-trifluoroethanesulfonamide] |
| < 200 | < 200 | CCn1nc(-c2cccc(C(C)(C)NS(=O)(=O)CC(F)(F)F)c2)cc1Oc1ccc(C)cc1 [Example 59, N-(1-{3-[1-ethyl-5-(4-methylphenoxy)-1H-pyrazol-3-yl]phenyl}-1-methylethyl)-2,2,2-trifluoroethanesulfonamide] |
